In test [1] the target is Carbonic anhydrase 1 (Homo sapiens, UniProt P00915). Description: Esterase Activity Assay. The following applies: pH 7.4; 25 °C.
Test [2] addresses Carbonic anhydrase 2 (Homo sapiens, UniProt P00918). Description: Esterase Activity Assay. The following applies: pH 7.4; 25 °C.

Molecules are shown by their SMILES.

Chain of Carbonic anhydrase 1 (P00915 whole entry): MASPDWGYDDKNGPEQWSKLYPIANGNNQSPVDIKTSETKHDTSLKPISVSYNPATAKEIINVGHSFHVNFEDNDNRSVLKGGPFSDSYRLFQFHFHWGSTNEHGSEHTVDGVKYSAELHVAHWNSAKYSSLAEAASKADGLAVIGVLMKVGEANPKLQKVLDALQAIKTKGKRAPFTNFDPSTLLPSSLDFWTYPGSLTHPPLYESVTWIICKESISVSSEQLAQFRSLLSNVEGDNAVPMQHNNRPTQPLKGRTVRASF

Regarding `O=c1oc2c(O)c(O)cc3c(=O)oc4c(O)c(O)cc1c4c23` [Elagic Acid], the Ki in test [1] worked out at 207 µM. As to `COc1cc(C(=O)O)cc(OC)c1O` [Syringic acid], the Ki in test [2] came to 695 µM; in test [1] it was 919 µM. As for `O=c1c(O)c(-c2ccc(O)c(O)c2)oc2cc(O)cc(O)c12` [2-(3,4-dihydroxyphenyl)-3,5,7-trihydroxy-chromone;hydrate], the Ki in test [2] turned out to be 105 µM; in test [1], 99 µM. Consider `COc1cc(/C=C/C(=O)O)ccc1O` [Ferulic acid (M5)], for which the Ki in test [2] came out at 210 µM; in test [1], 408 µM. Consider `O=C(O)/C=C/c1ccc(O)cc1` [p-Coumaric Acid], for which the Ki in test [2] amounted to 537 µM; in test [1], 441 µM. With `O=C(O)c1cc(O)c(O)c(O)c1` [Gallic Acid, F], the Ki was 758 µM in test [2] and 1050 µM in test [1]. Turning to `O=C(O)c1ccc(O)cc1` [4-Hydroxybenzoate, III], the inhibitory constant (Ki) in test [1] came to 1060 µM.

The values are drawn from BindingDB's records for doi:10.1111/j.1747-0285.2010.00965.x (Ataturk University, 2010).
